# Measurements taken from patent publication US12240844B2 (Voronoi, Inc., priority 2019, dated 2025).
# pIC50: −log10 of the molar value.
# Experiments:
# Assay type in all cases: biochemical
# [1] = target: T1, human GST-DYRK1A (full length) (Homo sapiens, UniProt Q13627); experiment: GST-DYRK1A enzyme inhibition, ADP-Glo kinase assay; conditions: read-out: DYRK1 IC50
# T1 construct: purified human GST-DYRK1A (full length, Thermo scientifics) enzyme; GST; purchased Thermo scientifics
# How it was run: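 Full-length human GST-DYRK1A (10 ng) incubated with 10 uM ATP and specific substrate for 1 h at 25° C in 40 mM Tris-HCl pH 7.4, 20 mM MgCl2, 0.5 mg/mL BSA, 50 uM DTT. ADP formation read by ADP-Glo luminescence; IC50 (nM) versus solvent control, triplicate.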
# human GST-CLK1 (129-end) = target: T2, human GST-CLK1 (129-end) (Homo sapiens, UniProt P49759); experiment: GST-CLK1 enzyme inhibition, ADP-Glo kinase assay; conditions: ATP 10 uM
# T2 construct: purified human GST-CLK1 (129-end, Signalchem) enzyme; GST; purchased Signalchem
# How it was run: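 GST-CLK1 (129-end, 3 ng) reacted with 10 uM ATP and substrate in 40 mM Tris-HCl pH 7.4, 20 mM MgCl2, 0.5 mg/mL BSA, 50 uM DTT, 1 h at 25° C. ADP-Glo luminescence normalised to solvent control; IC50 from triplicate data.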
# LRRK2 = LRRK2 (Homo sapiens, UniProt Q5S007); experiment: LRRK2 enzyme inhibition, ADP-Glo kinase assay; set-up: purchased Invitrogen PR8604B
# Experimental: In order to evaluate the inhibitory activity of the compounds according to the present invention on LRRK2, LRRK2 (G2019S), DYRK1, CLK1 and TTK kinases, the following experiment was performed.
# Example compounds were reacted with the purified human LRRK2 (Invitrogen #PR8604B) enzyme to evaluate the enzyme inhibitory ability as follows. The reaction buffer was used as the composition of 40 mM Tris-HCl pH7.4, 20 mM MgCl2, 0.5 mg/ml BSA and 50 μM DTT, and the reaction of all test materials was performed on the reaction buffer. The compound was diluted with 10 mM DMSO stock in 12 steps by a serial dilution method, and the enzyme activity was measured at the final compound concentrations of 50, 10, 2, 0.4, 0.08, 0.016, 0.0032, 0.00064, 0.000128, 0.0000256, 0.00000512 and 0.000001024 μM. In the test, the human LRRK2 (25 ng) enzyme was reacted with the purified ATP (10 μM) and an enzyme substrate ([…]) at 25° C. for 2 hours, and then the enzyme activity was identified using the in vitro ADP-Glo™ kinase assay (promega). The enzyme activity reaction liquid, an ADP-Glo reaction liquid and an enzyme potency detection solution were reacted in a ratio of 2:2:1, and the degree of inhibition of enzyme activity was measured by Luminescence. The degree of inhibition of enzyme activity according to the treatment concentrations of the respective compounds was calculated based on the fluorescence of the enzyme activity of a solvent control group that was not treated with the compound, where the concentration of each compound to inhibit enzyme activity inhibition by 50% was determined as an IC50 (nM) value and obtained using Prism (Version 5.01, GraphPad) software.
# In the table below, the following designations were used for the evaluation of enzyme inhibitory ability.
# LRRK2 (G2019S) = LRRK2 (G2019S) (Homo sapiens, UniProt Q5S007, G2019S); experiment: LRRK2 G2019S enzyme inhibition, ADP-Glo kinase assay; set-up: purchased SignalChem L10-12GG
# How it was run: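 Purified human LRRK2 G2019S (16 ng) with 25 μM ATP and 0.2 μg substrate, 2 h at 25° C in 40 mM Tris-HCl pH 7.4, 20 mM MgCl2, 0.5 mg/ml BSA, 50 μM DTT; compound at 12 final concentrations from 50 μM downward. ADP-Glo luminescence versus solvent control gave IC50 (nM).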
# LRRK2, sequence (Q5S007 970-2527 limits assumed): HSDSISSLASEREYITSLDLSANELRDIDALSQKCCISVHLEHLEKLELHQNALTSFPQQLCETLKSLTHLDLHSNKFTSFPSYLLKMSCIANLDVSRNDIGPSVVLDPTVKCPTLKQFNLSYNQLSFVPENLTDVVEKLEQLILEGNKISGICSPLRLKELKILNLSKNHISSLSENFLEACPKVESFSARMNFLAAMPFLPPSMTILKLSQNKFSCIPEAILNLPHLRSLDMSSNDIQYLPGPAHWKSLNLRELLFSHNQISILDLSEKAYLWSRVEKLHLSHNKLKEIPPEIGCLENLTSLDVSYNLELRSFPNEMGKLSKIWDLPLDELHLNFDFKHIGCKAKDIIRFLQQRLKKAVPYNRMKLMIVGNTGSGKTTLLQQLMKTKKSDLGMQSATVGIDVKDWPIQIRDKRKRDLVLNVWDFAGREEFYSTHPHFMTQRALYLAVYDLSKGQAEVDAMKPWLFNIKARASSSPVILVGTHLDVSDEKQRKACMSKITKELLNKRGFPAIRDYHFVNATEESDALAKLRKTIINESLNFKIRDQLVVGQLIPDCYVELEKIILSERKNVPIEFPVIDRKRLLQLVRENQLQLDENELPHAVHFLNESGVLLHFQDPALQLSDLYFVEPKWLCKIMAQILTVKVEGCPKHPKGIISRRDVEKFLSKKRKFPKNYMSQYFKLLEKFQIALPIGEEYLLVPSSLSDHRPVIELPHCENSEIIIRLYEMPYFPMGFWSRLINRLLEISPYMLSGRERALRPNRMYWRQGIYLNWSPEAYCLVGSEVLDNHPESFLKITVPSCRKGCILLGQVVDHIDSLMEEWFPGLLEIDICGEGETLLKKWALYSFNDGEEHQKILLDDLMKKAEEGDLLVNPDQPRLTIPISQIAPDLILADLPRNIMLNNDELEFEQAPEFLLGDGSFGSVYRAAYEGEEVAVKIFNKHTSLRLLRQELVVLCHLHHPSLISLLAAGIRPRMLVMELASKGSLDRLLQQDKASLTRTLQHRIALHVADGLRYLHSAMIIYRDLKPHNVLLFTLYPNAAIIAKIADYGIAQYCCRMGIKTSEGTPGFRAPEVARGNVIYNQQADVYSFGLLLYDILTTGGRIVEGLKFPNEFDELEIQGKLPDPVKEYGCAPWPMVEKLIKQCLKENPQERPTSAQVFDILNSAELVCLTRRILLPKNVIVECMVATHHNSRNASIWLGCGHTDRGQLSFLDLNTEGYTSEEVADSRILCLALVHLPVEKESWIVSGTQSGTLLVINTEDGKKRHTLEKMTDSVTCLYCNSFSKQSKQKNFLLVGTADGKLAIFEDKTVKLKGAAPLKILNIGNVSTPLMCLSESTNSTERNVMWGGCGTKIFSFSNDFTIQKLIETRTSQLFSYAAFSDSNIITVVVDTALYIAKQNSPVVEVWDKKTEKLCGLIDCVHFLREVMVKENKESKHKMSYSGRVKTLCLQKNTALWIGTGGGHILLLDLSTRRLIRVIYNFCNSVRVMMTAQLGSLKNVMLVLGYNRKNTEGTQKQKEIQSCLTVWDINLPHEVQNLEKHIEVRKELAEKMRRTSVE
# T2 sequence (P49759 129-484 limits assumed): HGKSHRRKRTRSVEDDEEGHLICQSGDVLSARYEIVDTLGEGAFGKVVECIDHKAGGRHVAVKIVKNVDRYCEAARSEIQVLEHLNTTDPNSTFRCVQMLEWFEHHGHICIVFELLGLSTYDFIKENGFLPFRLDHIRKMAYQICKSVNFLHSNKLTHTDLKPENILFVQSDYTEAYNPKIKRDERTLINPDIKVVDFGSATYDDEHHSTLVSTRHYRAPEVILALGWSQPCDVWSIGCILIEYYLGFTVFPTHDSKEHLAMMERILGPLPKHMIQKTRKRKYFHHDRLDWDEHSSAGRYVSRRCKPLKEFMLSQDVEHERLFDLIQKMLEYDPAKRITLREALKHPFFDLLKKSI
# LRRK2 (G2019S), sequence (Q5S007 970-2527 G2019S limits assumed): as the sequence (Q5S007 970-2527 limits assumed) above, with G1050S counted along it
pIC50 [1],pIC50 (human GST-CLK1 (129-end)),pIC50 (LRRK2),pIC50 (LRRK2 (G2019S)),Structure (SMILES)
6.00 to 6.52,> 7.00,> 7.00,> 7.00,"CCNc1cc(Nc2ccc(C(=O)N3CCC(N4CCOCC4)CC3)c3c2OCCO3)nc2[nH]cc(C#N)c12 [Example 113, 4-(ethylamino)-6-((8-(4-morpholinopiperidine-1-carbonyl)-2,3-dihydrobenzo [b] [1,4]dioxin-5-yl)amino)-1H-pyrrolo[2,3-b]pyridine-3-carbonitrile]"
> 7.00,> 7.00,> 7.00,> 7.00,"CCCNc1cc(Nc2ccc(C(=O)N3CCC(N4CCOCC4)CC3)c3c2OCCO3)nc2[nH]cc(C#N)c12 [Example 114, 6-((8-(4-morpholinopiperidine-1-carbonyl)-2,3-dihydrobenzo [b] [1,4]dioxin-5-yl)amino)-4-(propylamino)-1H-pyrrolo[2,3-b]pyridine-3-carbonitrile]"
6.00 to 6.52,6.00 to 6.52,> 7.00,> 7.00,"COc1cc(S(C)(=O)=O)ccc1Nc1cc(NCCS(C)(=O)=O)c2c(C#N)c[nH]c2n1 [Example 119, 6-((2-methoxy-4-(methylsulfonyl)phenyl)amino)-4-((2-(methylsulfonyl)ethyl)amino)-1H-pyrrolo[2,3-b]pyridine-3-carbonitrile]"
6.00 to 6.52,6.00 to 6.52,> 7.00,6.52 to 7.00,"COc1cc(S(C)(=O)=O)ccc1Nc1cc(NC2CCC2)c2c(C#N)c[nH]c2n1 [Example 120, 4-(cyclobutylamino)-6-((2-methoxy-4-(methylsulfonyl)phenyl)amino)-1H-pyrrolo[2,3-b]pyridine-3-carbonitrile]"
6.00 to 6.52,6.00 to 6.52,> 7.00,6.52 to 7.00,"COc1cc(S(C)(=O)=O)ccc1Nc1cc(NC2CC2)c2c(C#N)c[nH]c2n1 [Example 122, 4-(cyclopropylamino)-6-((2-methoxy-4-(methylsulfonyl)phenyl)amino)-1H-pyrrolo[2,3-b]pyridine-3-carbonitrile]"
6.00 to 6.52,6.00 to 6.52,> 7.00,> 7.00,CNc1cc(Nc2ccc(S(C)(=O)=O)cc2OC)nc2[nH]cc(C#N)c12 [Example 123]
6.00 to 6.52,6.00 to 6.52,> 7.00,6.52 to 7.00,"CCCNc1cc(Nc2ccc(S(C)(=O)=O)cc2OC)nc2[nH]cc(C#N)c12 [Example 125, 6-((2-methoxy-4-(methylsulfonyl)phenyl)amino)-4-(propylamino)-1H-pyrrolo[2,3-b]pyridine-3-carbonitrile]"

# Continued, compound first:
Structure (SMILES),pIC50 [1],pIC50 (human GST-CLK1 (129-end)),pIC50 (LRRK2),pIC50 (LRRK2 (G2019S))
"COCCNc1cc(Nc2ccc(C(=O)N3CCOCC3)c3c2OCCO3)nc2[nH]cc(C#N)c12 [Example 109, 4-((2-methoxyethyl)amino)-6-((8-(morpholine-4-carbonyl)-2,3-dihydrobenzo[b] [1,4]dioxin-5-yl)amino)-1H-pyrrolo[2,3-b]pyridine-3-carbonitrile]",> 7.00,> 7.00,> 7.00,> 7.00
"CS(=O)(=O)CCNc1cc(Nc2ccc(C(=O)N3CCOCC3)c3c2OCCO3)nc2[nH]cc(C#N)c12 [Example 110, 4-((2-(methylsulfonyl)ethyl)amino)-6-((8-(morpholine-4-carbonyl)-2,3-dihydrobenzo[b] [1,4]dioxin-5-yl)amino)-1H-pyrrolo[2,3-b]pyridine-3-carbonitrile]",6.00 to 6.52,6.52 to 7.00,> 7.00,> 7.00
"N#Cc1c[nH]c2nc(Nc3ccc(C(=O)N4CCOCC4)c4c3OCCO4)cc(NC3CC3)c12 [Example 111, 4-(cyclopropylamino)-6-((8-(morpholine-4-carbonyl)-2,3-dihydrobenzo[b] [1,4]dioxin-5-yl)amino)-1H-pyrrolo[2,3-b]pyridine-3-carbonitrile]",6.00 to 6.52,6.52 to 7.00,> 7.00,> 7.00
"CNc1cc(Nc2ccc(C(=O)N3CCC(N4CCOCC4)CC3)c3c2OCCO3)nc2[nH]cc(C#N)c12 [Example 115, 4-(methylamino)-6-((8-(4-morpholinopiperidine-1-carbonyl)-2,3-dihydrobenzo[b] [1,4]dioxin-5-yl)amino)-1H-pyrrolo[2,3-b]pyridine-3-carbonitrile]",6.52 to 7.00,6.52 to 7.00,> 7.00,> 7.00
"N#Cc1c[nH]c2nc(Nc3ccc(C(=O)N4CCC(N5CCOCC5)CC4)c4c3OCCO4)cc(NC3CC3)c12 [Example 116, 4-(cyclopropylamino)-6-((8-(4-morpholinopiperidine-1-carbonyl)-2,3-dihydrobenzo [b] [1,4]dioxin-5-yl)amino)-1H-pyrrolo[2,3-b]pyridine-3-carbonitrile]",6.00 to 6.52,6.52 to 7.00,> 7.00,> 7.00
"N#Cc1c[nH]c2nc(Nc3ccc(C(=O)N4CCC(N5CCOCC5)CC4)c4c3OCCO4)cc(NC3CCC3)c12 [Example 117, 4-(cyclobutylamino)-6-((8-(4-morpholinopiperidine-1-carbonyl)-2,3-dihydrobenzo[b] [1,4]dioxin-5-yl)amino)-1H-pyrrolo[2,3-b]pyridine-3-carbonitrile]",6.00 to 6.52,> 7.00,> 7.00,> 7.00
"COCCNc1cc(Nc2ccc(C(=O)N3CCC(N4CCOCC4)CC3)c3c2OCCO3)nc2[nH]cc(C#N)c12 [Example 118, 4-((2-methoxyethyl)amino)-6-((8-(4-morpholinopiperidine-1-carbonyl)-2,3-dihydrobenzo [b] [1,4]dioxin-5-yl)amino)-1H-pyrrolo[2,3-b]pyridine-3-carbonitrile]",6.00 to 6.52,> 7.00,> 7.00,> 7.00
"COc1cc(S(C)(=O)=O)ccc1Nc1cc(NC2CCCC2)c2c(C#N)c[nH]c2n1 [Example 121, 4-(cyclopentylamino)-6-((2-methoxy-4-(methylsulfonyl)phenyl)amino)-1H-pyrrolo[2,3-b]pyridine-3-carbonitrile]",6.00 to 6.52,6.00 to 6.52,> 7.00,6.00 to 6.52
"CCNc1cc(Nc2ccc(S(C)(=O)=O)cc2OC)nc2[nH]cc(C#N)c12 [Example 124, 4-(ethylamino)-6-((2-methoxy-4-(methylsulfonyl)phenyl)amino)-1H-pyrrolo[2,3-b]pyridine-3-carbonitrile]",6.00 to 6.52,6.00 to 6.52,> 7.00,6.52 to 7.00
"COCCNc1cc(Nc2ccc(S(C)(=O)=O)cc2OC)nc2[nH]cc(C#N)c12 [Example 126, 6-((2-methoxy-4-(methylsulfonyl)phenyl)amino)-4-((2-methoxyethyl)amino)-1H-pyrrolo[2,3-b]pyridine-3-carbonitrile]",6.00 to 6.52,6.00 to 6.52,> 7.00,> 7.00
"O=C(c1ccc(Nc2cc(NC3CCCCC3)c3c(C(F)(F)F)c[nH]c3n2)c2c1OCCO2)N1CCOCC1 [Example 154, (8-((4-(cyclohexylamino)-3-(trifluoromethyl)-1H-pyrrolo[2,3-b]pyridin-6-yl)amino)-2,3-dihydrobenzo[b] [1,4]dioxin-5-yl)(morpholino) methanone]",6.00 to 6.52,6.00 to 6.52,6.00 to 6.52,6.00 to 6.52
